From patent publication US4954520A, “1,3-dioxolane derivatives useful in the treatment of inflammation” (G. D. Searle & Co., priority 1989, dated 1990)
Where a name gives a salt, the structure may show the parent alone.

Test system: LTB4 production in HL-60 cells
Experiment: A23187-Induced LTB4 Production in Human Promyelocytic Leukemia HL-60 Cells (HL-60 Cell Assay)
Type: cell-based
Settings: for inhibition at 100 µM: 10^-4 M; for inhibition at 10 µM: 10^-5 M; for IC50: A23187-stimulated differentiated HL-60 cells, 10 minutes preincubation at 37° C.
Text: A23187-Induced LTB4 Production in Human Promyelocytic Leukemia HL-60 Cells.
Calcium ionophore A23187 was obtained from Calbiochem (La Jolla, CA). Trans-stilbene oxide was obtained from Sigma (St. Louis, MO). Hanks' balanced salt solution (HBSS) (10X concentrate), 1 M Hepes, and Dulbecco's modified Eagle medium were obtained from GIBCO Laboratories (Grand Island, NY). Fetal bovine serum was obtained from HyClone Laboratories (Logan, UT) The LTB4 and PGE2 radioimmunoassay antibodies were purchased from Amersham International plc (Amersham, UK) and NEN Research Products (N. Billerica, MA), respectively. Reagents for assay of lactate dehydrogenase (LDH) activity were purchased from Beckman (Carlsbad, CA).
Preparation of HL 60 Cells:
HL-60 cells were cultured in Dulbecco's modified Eagle medium (supplementedwith 20% fetal bovine serum, 20 mM Hepes, 100 U/ml penicillin and 100 mcg/ml streptomycin) and maintained at 37° C. in a humidified atmosphere of 5% CO2 in air. Cells from exponentially growing cultures were seeded at 3×10^5 cells/ml and induced to differentiate into granulocyte with 0.8% (v/v) N,N dimethylformamide for 4 days (1,2). Prior to assay, differentiated HL-60 cells were washed once with Hanks' balanced salt solution containing 0.35 mg/ml sodium bicarbonate and 10 mM Hepes, pH 7.3 (HBSS) and resuspended in HBSS at a concentration of 3×10^6 cells/ml.
DMSO or test compounds as 100× concentrates in DMSO were added in duplicate to 1.0 ml HL-60 cell suspensions (3×10^6 cells) and preincubated at 37° C. for 10 minutes in a shaking water bath. After an additional 5 minute incubation with calcium ionophore A23187 (10 mcl @ 5×10^-4 M in DMSO), the cells were pelleted at 12,800×g for 15 seconds and the supernatant removed and stored at […] for quantification of LTB4 or PGE2 via radioimmunoassay and LDH activity.
LTB4 and PGE2 data were expressed as percent inhibition of A23187-stimulated controls. For IC50 determinations, the 4 parameter logistic model was used where y is the percent inhibition response and×is the log10 concentration of the inhibitor: [formula] Nonlinear regression was performed using the SAS (3) procedure NLIN to obtain least squares estimates of the four parameters in the above equation: y.infin. (maximum), Y0 (minimum), a (log10 IC50) and b (slope factor). Increases in mean LDH levels for A23187-stimulated cells in the presence of test compound were tested for significance using a one tailed two sample Student's t-test.

Row | Structure (SMILES) | inhibition at 100 µM (A23187-stimulated HL-60 cells) | inhibition at 10 µM (A23187-stimulated HL-60 cells) | IC50 | inhibition at 1 µM (10^-6 M, A23187-stimulated HL-60 cells)
1 | CCCCCCCCCC/C=C/C=C/C1OCC(CCCC(=O)O)O1 (racemic) [Example 5B (Racemic Mixture), 2-Tetradeca-1E,3E-dienyl-1,3-dixolane-4-butanoic acid, lithium salt] | 96% | 80% | 6.8 µM | –
2 | CCCCCCCCCC/C=C/C=C/C1OCC(c2cccc(C(=O)O)c2)O1 (racemic) [Example 7B (Racemic Mixture), 3-(2-Tetradeca-1E,3E-dienyl-1,3-dioxolan-4-yl)benzoic acid, lithium salt] | 89% | 91% | 2.5 µM | 21%
3 | CCCCCCC/C=C/C=C/C1OCC(CCCC(=O)O)O1 (racemic) [Example 8B, (±) 2-Undeca-1E,3E-dienyl-1,3-dioxolane-4-butanoic acid, lithium salt] | 84% | – | – | –
4 | CCCCCCCCCC/C=C/C=C/C1OCC(CCCC(=O)O)O1 (single isomer, unassigned) [Example 5B (Single Diastereomer), 2-Tetradeca-1E,3E-dienyl-1,3-dixolane-4-butanoic acid, lithium salt] | 91% | 77% | 7.2 µM | –
5 | CCCCCCCCCC/C=C/C=C/C1OCC(c2cccc(C(=O)[O-])c2)O1.[Li+] (single isomer, unassigned) [Example 7B (Single diastereomer), 3-(2-Tetradeca-1E,3E-dienyl-1,3-dioxolan-4-yl)benzoic acid, lithium salt] | 92% | 92% | 3.6 µM | –
